According to patent publication US7772430B2, “Derivatives of arylsulfonamido-substituted hydroxamic acid as matrix metalloproteinases inhibitors” (Protera S.R.L., priority 2004, dated 2010):

Key:
[1] = target: T1, Catalytic domain of MMP-12 (Homo sapiens, UniProt P39900); assay: In vitro inhibition test, fluorogenic peptide substrate (Knight et al.); format: biochemical; conditions: 298 K, pH 7, 1% DMSO; stated in words only
T1 construct: Catalytic domain of MMP-12 was cloned, expressed and purified; made in house
T1 sequence (P39900 106-263 limits assumed): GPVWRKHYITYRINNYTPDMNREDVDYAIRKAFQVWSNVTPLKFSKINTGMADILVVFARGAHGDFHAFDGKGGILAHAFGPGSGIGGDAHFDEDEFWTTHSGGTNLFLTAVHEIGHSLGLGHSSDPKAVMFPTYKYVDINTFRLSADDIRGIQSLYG
Description: The compounds of the invention, prepared as above described, were tested in vitro according to the method reported by Knight et al. in FEBS Lett 1992, 296 (3):263.
Catalytic domain of MMP-12 was cloned, expressed and purified according to the procedure reported in Banci et al. Journal of Molecular Catalysis A: Chemical, 2003, Vol. 204-205, pp. 401-408). Preparation of catalytic domain of MMP-1 was performed as follows: proMMP-1 cDNA was cloned into the pET21 (Novagen) expression vector. The recombinant vector was transformed into Escherichia Coli BL21 cells. The bacteria were grown in 2 XYt media and incubated at 37° C. When the cells reached the exponential growth phase, the expression of the protein was induced by adding 0.5 mM of IPTG and the incubation was continued further for four hours. […]
The protein was maintained in presence of inhibitor for 5 min before the substrate was added. Subsequently, after addition of peptidic substrate, the increase of fluorescence intensity was measured vs. time (excitation 328 nm, emission 393 nm) using a Varian/Eclipse fluorimeter.
Matrix metalloproteinases cleave peptidic bond glycine-leucine separating coumarinic group from 2,4-dinitrophenol and so causing a high increase of fluorescence intensity under the conditions indicated above. […]

Solubility in water = format: physicochemical; conditions: stated in words only

solubility in water (Solubility in water): good solubility
SMILES: COc1ccc(S(=O)(=O)NC(CO)C(=O)NO)cc1 (centres unmarked) [Example 7, 3,N-dihydroxy-2-[(4-methoxy-benzenesulfonyl)amino]-propionamide]
ability to inhibit MMP-12 (from IC50 data) [1]: do not have the inhibition activity and selectivity of present compounds of formula (I)
